Test results: ChEMBL document CHEMBL3507680, “University of Dundee, Gates Library screen for HepG2 cell viability”

assay: Human HepG2 cell viability assay in 384 well format; format: toxicity, cell-based; parameters: dose 125 nL, time 70.5 hour; cytotoxicity at 70.5 h: concentration not given beside the values; settings: HepG2 cells, read-out: Inhibition

Row | Structure (SMILES) | cytotoxicity at 70.5 h [%]
1 | CS(=O)(=O)Cc1ccc(C(=O)NCc2ccc(Cl)cc2Cl)cc1 | -6.11
2 | COc1cc(C2(C(=O)NC3CCN(C4CC4)CC3)CC2)ccc1C | -4.2
3 | CN(CC(=O)Nc1cnn(-c2ccccc2S(C)(=O)=O)c1)C1CC1 | -3.94
4 | O=C(c1cccnc1)N1CCc2ncnc(C3CCOC3)c2CC1 (stereo unspecified) | -7.71
5 | Cc1nc(NCCN2CCCC2=O)cc(C2CN(C(C)C)CCO2)n1 (stereo unspecified) | 1.39
6 | Cc1nn(C)c(N(C)C)c1CNCC(O)COc1cccc(F)c1 (stereo unspecified) | -11.4
7 | Nc1nc2nc(C3CCCN(C(=O)c4cncs4)C3)ccc2s1 (stereo unspecified) | 0.556
8 | Cc1cc(C(=O)N[C@@H]2CCC[C@@H](N3CCOCC3)[C@@H]2O)no1 | -6.42
9 | O=C1CO[C@@H]2CN(Cc3ccncc3)C[C@H]2N1Cc1ccncc1 | -7.94
10 | CCc1cc(CNC(=O)N(C2CC2)C(C)c2ccco2)on1 (stereo unspecified) | 23.3
11 | CCN1CCOCC2(C1)CN(C(=O)c1c(C)noc1C)CCO2 (stereo unspecified) | -3.94
12 | NC(=O)C(NC(=O)CCc1ccc(Cl)s1)c1ccccc1 (stereo unspecified) | -7.77
13 | CC(Cn1cccn1)NC(=O)NCc1ccc(C(N)=O)cc1 (stereo unspecified) | -15.4
14 | c1ccc(-c2nc(CCNCc3ccccn3)co2)cc1 | -1.18
15 | CN(Cc1cn2ccccc2c1C#N)C1CCCN(c2cccnn2)C1 (stereo unspecified) | -11.9
16 | O=C(O)[C@@H]1CN(CCOCCO)C[C@H]1c1ccccc1 | 30
17 | C=C(C)COCCNC(=O)Nc1cccc(Cn2nc(C)nc2C)c1 | 19.9
18 | O=S(=O)(Cc1ccccc1)NC[C@H]1Cn2ccnc2CO1 | 10.3
19 | CN(c1ncnc2sccc12)C1CCCN(c2cccnn2)C1 (stereo unspecified) | -13.9

Row | Structure (SMILES) | cytotoxicity at 70.5 h [%]
20 | CCc1nc(CC(=O)N2CCC(C(=O)N3CCCCC3)CC2)cs1 | -4.54
21 | CC(c1ccc(F)cc1)N1CCN(Cc2ccc(C#N)cc2)CC1 (stereo unspecified) | -11.6
22 | Cc1nc(CN(C)CC2CCCN2c2cccnn2)nc2ccccc12 (stereo unspecified) | -5.19
23 | CC(C)(C)CC(=O)N1CSCC1C(=O)NC1=NCCS1 (stereo unspecified) | 19.4
24 | C[S+]([O-])c1nncn1CCCc1ccc(Cl)cc1 (stereo unspecified) | -2.94
25 | Cc1cnn(C2CCCN(C(=O)c3cn4cccnc4n3)C2)c1 (stereo unspecified) | -3.94
26 | Cc1cccc(CN(Cc2ccc(C)o2)C2CC(C)(C)NC(C)(C)C2)n1 | -9.61
27 | CCCS(=O)(=O)CC(=O)N1CCCC1c1noc(C2CC2)n1 (stereo unspecified) | -17.8
28 | O=C(c1cnc(O)cn1)N1CCCC1c1nc2cc(F)ccc2[nH]1 (stereo unspecified) | -4.45
29 | Cc1ccn2c(=O)cc(CSCC(=O)Nc3nnc(C(C)C)s3)nc2c1 | 23
30 | CCc1nccn1C1CCCN(C(=O)c2ccnc(C)n2)C1 (stereo unspecified) | -7.48
31 | COc1c(C2CCCN2CCOc2ccccc2C#N)c(C)nn1C (stereo unspecified) | -0.493
32 | CC(=O)N(C)CC(=O)Nc1ccc(C)cc1OCc1ccccc1 | -1.76
33 | CCOCc1nc(N2CCOCC2)sc1C(=O)NCc1ccco1 | -6.85
34 | CN1C(=O)CC(c2cnn(C)c2)C12CCN(C(=O)c1ccno1)CC2 (stereo unspecified) | -12
35 | CC(=O)NCCNCc1cn(CCN2CCSCC2)nc1C | -5.7
36 | CN(Cc1cncs1)C1CCN(C(=O)OC(C)(C)C)CC1 | -8.3
37 | COC(=O)C1CCCN1C(=O)c1cc(CC(C)C)no1 (stereo unspecified) | -1.76
38 | COCC1COCCC12CCN(C(=O)CC1Cc3ccccc3C1)CC2 (stereo unspecified) | 0.913

Row | Structure (SMILES) | cytotoxicity at 70.5 h [%]
39 | COc1ccc(CN2CCN(C(=O)N(C)C)[C@@H]3CS(=O)(=O)C[C@@H]32)cc1F | 4.21
40 | CN(CC(O)C1CC1)C(=O)c1ccc(-c2nc(C3CC3)no2)cc1 (stereo unspecified) | 2.53
41 | Cc1ccc(NC(=O)C2CSCN2C(=O)c2cnsn2)c(C)c1 (stereo unspecified) | -6.91
42 | CS(=O)(=O)c1ccc(-c2cc(C3CC3)c(C#N)c(N)n2)cc1 | 0.0408
43 | CCc1nnc(C(C)N2CCc3cncnc3C2)o1 (stereo unspecified) | -3.77
44 | CC(=O)Nc1ccc(S(=O)(=O)N2CCOC(Cn3ccnc3)C2)cc1 (stereo unspecified) | -4.79
45 | CCc1n[nH]c(C2CN(C(=O)c3ncoc3C(C)C)CCO2)n1 (stereo unspecified) | -9.85
46 | O=C(CC1CCCC1)NCCS(=O)(=O)N1CCN(c2ncccn2)CC1 | -11
47 | O=C(NCCOc1ccc(F)c(F)c1)NCc1cccc(CO)c1 | -9.23
48 | Cc1nn(C(C)C)cc1S(=O)(=O)N(C)Cc1nonc1C | -7.62
49 | CCOCC(=O)NCCc1ccc(I)s1 | 18.6
50 | CCCc1nc(CNC(=O)Cc2csc(C)n2)cs1 | 0.825
51 | O=C1C[C@H]2CC[C@@H](CN1)N2C1CCSCC1 | 0.716
52 | Cc1cccc(CN2CCC(NCC3CNc4cc(C)nn4C3)CC2)c1 (stereo unspecified) | -6.82
53 | Cc1cc(CN2CC[C@H]3C[C@H](c4nc(C5CC5)cs4)O[C@@H]3C2)no1 | -4.1
54 | Cn1cc(CNCC2Cn3nnc(-c4ccccc4)c3CO2)cn1 (stereo unspecified) | -16.3
55 | CCc1c(C(=O)O)nnn1-c1cccc(C)c1C | -7.95
56 | c1cnn(CC2CCCCN2Cc2nc(-c3ccoc3)no2)c1 (stereo unspecified) | 3.95
